Here are results for ten compounds from US7056947B2, “Aza-peptide epoxides” (Georgia Tech Research Corp., priority 2002, dated 2006).

What all share (assay type): biochemical
For experiment [1], the target named is T1, papain (Carica papaya, UniProt P00784).
T1 sequence (P00784 134-345): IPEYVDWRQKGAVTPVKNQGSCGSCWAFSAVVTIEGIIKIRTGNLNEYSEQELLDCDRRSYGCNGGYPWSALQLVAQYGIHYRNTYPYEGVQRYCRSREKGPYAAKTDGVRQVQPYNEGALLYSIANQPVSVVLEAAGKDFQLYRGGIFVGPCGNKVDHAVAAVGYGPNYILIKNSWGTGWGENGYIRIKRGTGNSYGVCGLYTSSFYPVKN
The experiment can be described thus: Inhibition of papain, incubation method. The note with it: second-order rate constant, NI = no inhibition. The method, boiled down:
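Incubation-method inactivation: plots of ln vt/vo against time gave pseudo-first-order rate constants. Activity monitored at 405 nm with Z-Phe-Arg-pNA substrate (53.7 μM); papain at about 0.29 mg/mL in pH 7.5 Hepes (50 mM) containing DTT and EDTA (2.5 mM each).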

The target of experiment [2] is cathepsin B (Homo sapiens, UniProt P07858). The experiment can be described thus: Inhibition of cathepsin B, incubation method. Particulars: second-order rate constant, NI = no inhibition. From the text: The release of 7-amino-4-methylcoumarin was monitored (λex=360 nm, λem=465 nm) using a Tecan Spectra Fluor microplate reader. Pseudo first-order inactivation rate constants were obtained from plots of In vt/vo versus time.

Experiment [3] addresses dipeptidyl peptidase I (DPPI, cathepsin C) (Homo sapiens, UniProt P53634). The experiment is described as follows: Inhibition of DPPI.
Experiment [4] deals with T2, caspase-1 (Homo sapiens, UniProt P29466, D381E).
T2 construct: His tag (N); made in house; host or cells: E. coli
T2 sequence (P29466 120-297 limits assumed): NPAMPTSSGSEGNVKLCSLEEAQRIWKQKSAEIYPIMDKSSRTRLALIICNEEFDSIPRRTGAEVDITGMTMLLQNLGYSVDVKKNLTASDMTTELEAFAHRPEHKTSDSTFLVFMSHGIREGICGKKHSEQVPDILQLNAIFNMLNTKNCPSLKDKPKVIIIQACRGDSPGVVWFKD
T2 sequence (P29466 317-404 D381E limits assumed): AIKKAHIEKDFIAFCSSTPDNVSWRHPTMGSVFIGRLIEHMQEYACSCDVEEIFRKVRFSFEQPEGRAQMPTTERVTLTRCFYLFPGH
The experiment is described as follows: Caspase-1 progress curve assay. The note with it: D381E variant, substrate Ac-YVAD-AMC, 30° C. In short, it runs like this: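 Autolysis-resistant D381E caspase-1 (E. coli, N-His tag), about 2 nM, added with 15 μM Ac-YVAD-AMC in HEPES/glycerol/EDTA buffer with 5 mM DTT to prewarmed compound at 30 °C. AMC fluorescence followed 900 s, triplicate curves fit to irreversible inactivation; kon (M^−1s^−1) from regression slope.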

The target in experiment [5] is T3, caspase-6 (Homo sapiens, UniProt P55212).
T3 construct: made in house; host or cells: E. coli
T3 sequence (P55212 24-179 limits assumed): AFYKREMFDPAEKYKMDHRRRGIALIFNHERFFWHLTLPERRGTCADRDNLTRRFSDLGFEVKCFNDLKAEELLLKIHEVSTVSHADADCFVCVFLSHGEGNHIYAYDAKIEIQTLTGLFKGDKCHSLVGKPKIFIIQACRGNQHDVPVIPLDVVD
T3 sequence (P55212 194-293 limits assumed): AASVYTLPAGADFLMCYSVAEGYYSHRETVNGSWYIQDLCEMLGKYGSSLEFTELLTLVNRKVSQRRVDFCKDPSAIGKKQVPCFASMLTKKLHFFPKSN
The experiment is described as follows: Caspase-6 progress curve assay. Particulars: Table V, substrate Z-DEVD-AFC. The method, then:
Caspase-3, -6, and -8. Caspase-3, -6 and -8 were expressed in E. coli and purified according to methods previously described by Stennicke and Salvesen. Assays using the fluorogenic substrate Z-DEVD-AFC (λex=400 nm, λem=505 nm) were carried out on a Molecular Devices fMax fluorescence microplate reader. Inhibition rates and equilibria were determined by the progress curve method. The standard 100 μL reaction was started by adding enzyme to a mixture of substrate (final concentration of Z-DEVD-AFC 100 μM) and various amounts of inhibitor in buffer (50 mM Hepes, 100 mM NaCl, 0.1% (w/v) CHAPS, sucrose 10% (w/v), and 10 mM DTT, at pH 7.4). The caspases were pre-activated for 10 min at 37° C. in the presence of 10 mM DTT.

For experiment [6], the target named is T4, caspase-3 (Homo sapiens, UniProt P42574).
T4 construct: made in house; host or cells: E. coli
T4 sequence (P42574 29-175 limits assumed): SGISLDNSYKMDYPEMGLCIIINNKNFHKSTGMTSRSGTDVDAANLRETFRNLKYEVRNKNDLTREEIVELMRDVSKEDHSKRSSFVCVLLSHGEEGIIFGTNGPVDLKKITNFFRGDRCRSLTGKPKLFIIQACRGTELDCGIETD
T4 sequence (P42574 176-277 limits assumed): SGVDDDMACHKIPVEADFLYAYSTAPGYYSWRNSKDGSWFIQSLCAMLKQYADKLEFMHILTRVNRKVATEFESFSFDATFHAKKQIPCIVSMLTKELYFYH
The experiment can be described thus: Caspase-3 progress curve assay. The note with it: substrate Z-DEVD-AFC; NI = no inhibition. In short, it runs like this: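 E. coli-expressed caspases, pre-activated 10 min at 37° C with 10 mM DTT, were added to 100 μM Z-DEVD-AFC plus inhibitor in 50 mM Hepes, 100 mM NaCl, 0.1% CHAPS, 10% sucrose, 10 mM DTT, pH 7.4. AFC fluorescence (ex 400/em 505 nm) was followed; inhibition rates and equilibria came from progress curves.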

The target of experiment [7] is T5, schistosome legumain SmAE (Schistosoma mansoni asparaginyl endopeptidase) (Schistosoma mansoni, UniProt P09841, N192C, form not given).
T5 sequence (P09841 1-429 N192C): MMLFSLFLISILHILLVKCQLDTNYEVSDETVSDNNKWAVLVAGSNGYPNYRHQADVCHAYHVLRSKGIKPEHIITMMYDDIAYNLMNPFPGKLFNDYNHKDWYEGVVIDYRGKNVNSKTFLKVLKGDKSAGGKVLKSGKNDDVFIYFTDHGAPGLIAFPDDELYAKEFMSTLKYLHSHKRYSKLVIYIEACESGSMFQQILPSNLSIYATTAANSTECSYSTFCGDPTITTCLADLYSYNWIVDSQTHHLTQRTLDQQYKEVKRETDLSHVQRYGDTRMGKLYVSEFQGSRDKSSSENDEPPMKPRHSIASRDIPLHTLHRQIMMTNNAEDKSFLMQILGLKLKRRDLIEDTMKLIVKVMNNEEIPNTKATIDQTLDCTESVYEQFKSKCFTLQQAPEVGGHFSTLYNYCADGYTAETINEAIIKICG
The experiment can be described thus: Schistosome legumain (SmAE) IC50 assay. Particulars: read-out: Schistosome Legumain IC50; preincubated 20 minutes at room temperature, substrate Cbz-Ala-Ala-Asn-AMC; NI = no inhibition. As to the method: Studies with the aza-peptide epoxides using the schistosome legumain SmAE (Schistosoma mansoni asparaginyl endopeptidase) were also performed. The enzymatically pure enzyme (zymogen form) was expressed in Pichia without interference from other proteases (ref FEBS lett 2000 466 244–248 Caffrey). The actual active site enzyme concentration is unknown. The lyophilized enzyme (50–100 mg) was reconstituted in 1.5 mL 0.5 M sodium acetate, pH 4.5 containing 4 mM DTT, and left to stand at 37° C. for 3–4 hours to allow for auto-activation of the zymogen. In a black 96-well microtiter plate, 50 uL of activated enzyme was added to an equal volume of 0.1 M citrate-phosphate buffer pH 6.8 containing 4 mM DTT. Inhibitor stock solutions (20 mM) were prepared in DMSO. Serial dilutions (using water) of inhibitor were added (as 1 uL aliquots) to yield concentrations of between 2 and 0.00002 uM inhibitor. The inhibitors were preincubated with the protease at room temperature for 20 minutes before the assay (IC50s were the same when incubated for only 5 minutes). After incubating various inhibitor concentrations with enzyme, 100 uL of the same buffer containing 20 uM substrate (Cbz-Ala-Ala-Asn-AMC) was added to the wells and the reaction monitored at room temperature with linear kinetics up to 20 minutes. Inhibitors are tested in duplicate. A plot of the RFU/min versus the inhibitor concentration [μM] permitted calculation of an IC50 value and estimation of the kobs/[I].

Chain of dipeptidyl peptidase I (DPPI, cathepsin C) (P53634 25-463, species assumed): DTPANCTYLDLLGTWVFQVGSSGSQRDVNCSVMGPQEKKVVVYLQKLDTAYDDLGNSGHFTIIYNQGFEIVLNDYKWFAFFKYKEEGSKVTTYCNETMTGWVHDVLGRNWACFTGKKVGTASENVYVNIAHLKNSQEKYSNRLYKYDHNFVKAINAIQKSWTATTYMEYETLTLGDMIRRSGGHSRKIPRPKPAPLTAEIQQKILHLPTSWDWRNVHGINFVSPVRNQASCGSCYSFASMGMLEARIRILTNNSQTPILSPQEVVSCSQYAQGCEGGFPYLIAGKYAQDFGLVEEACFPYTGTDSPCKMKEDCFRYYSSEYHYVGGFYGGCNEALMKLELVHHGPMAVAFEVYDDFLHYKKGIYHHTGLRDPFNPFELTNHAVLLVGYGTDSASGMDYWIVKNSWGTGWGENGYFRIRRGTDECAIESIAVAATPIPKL

Take `CCCC[C@H](NC(=O)OC(C)(C)C)C(=O)NN(CCc1ccccc1)C(=O)[C@@H]1O[C@H]1C(=O)OCC` (relative stereo) [Boc-Nle-AHph-trans-EP-COOEt, trans-3-(N^2-(N-tert-Butoxycarbonylnorleucyl)-N^1-phenylethylhydrazinocarbonyl)oxirane-2-carboxylic Acid Ethyl Ester]: the kinact/KI in experiment [1] (pH 7.5, read-out: kobs/[I] papain) came out at 1.6 M⁻¹ s⁻¹; in experiment [2] (pH 6, read-out: kobs/[I] cathepsin B) it was 1.3 M⁻¹ s⁻¹; in experiment [3] (read-out: kobs/[I] DPPI), 0.7 M⁻¹ s⁻¹.
For `CC(C)[C@H](NC(=O)CCc1ccccc1)C(=O)N[C@@H](C)C(=O)NN(CC(=O)O)C(=O)[C@H]1O[C@@H]1C(=O)N(Cc1ccccc1)Cc1ccccc1` [10-127, (2S,3S)-2-(Dibenzylcarbamoyl)-3-(N^2-(3-phenylpropanoylvalylalanyl)-N^1-carboxymethylhydrazinocarbonyl)oxirane], the “k2 caspase-1” value in experiment [4] stood at 101140 ± 9547 M⁻¹ s⁻¹. Moreover, the “k2 caspase-6” value in experiment [5] was found to be 145 ± 1 M⁻¹ s⁻¹. The “k2 caspase-3” value in experiment [6] was determined as 830 ± 40 M⁻¹ s⁻¹.
With `CCCCN(CCCC)C(=O)[C@H]1O[C@@H]1C(=O)N(CC(=O)O)NC(=O)[C@H](C)NC(=O)[C@@H](NC(=O)CCc1ccccc1)C(C)C` [10-129, (2S,3S)-2-(Dibutylcarbamoyl)-3-(N^2-(3-phenylpropanoylvalylalanyl)-N^1-carboxymethylhydrazinocarbonyl)oxirane], the “k2 caspase-1” value in experiment [4] was 26150 ± 5460 M⁻¹ s⁻¹. Moreover, in experiment [5], the “k2 caspase-6” value amounted to 53 ± 9 M⁻¹ s⁻¹. Further, the “k2 caspase-3” value in experiment [6] was found to be 520 ± 10 M⁻¹ s⁻¹.
The term IC50 denotes the concentration at which inhibition is half-maximal. As for `CC(NC(=O)OCc1ccccc1)C(=O)NC(C)C(=O)NN(CC(N)=O)C(=O)C1OC1C(=O)NCc1ccccc1` [12d, (2S,3S)-2-(2-Benzylcarbamoyl)-3-(N^2-(N-benzyloxycarbonylalanylalanyl)-N^1-carbamoylmethylhydrazinocarbonyl)oxirane], the IC50 in experiment [7] was greater than 2 µM.
`CC(NC(=O)OCc1ccccc1)C(=O)NC(C)C(=O)NN(CC(N)=O)C(=O)C1OC1C(=O)NCCc1ccccc1` [12e, (2S,3S)-2-(2-Phenethylcarbamoyl)-3-(N^2-(N -benzyloxycarbonylalanylalanyl)-N^1-carbamoylmethylhydrazinocarbonyl)oxirane]: the IC50 in experiment [7] was greater than 2 µM.
On the same count and under the same terms, the value for `CC(NC(=O)[C@@H]1O[C@H]1C(=O)N(CC(N)=O)NC(=O)[C@H](C)NC(=O)[C@H](C)NC(=O)OCc1ccccc1)C(=O)NCc1ccccc1` (stereo partly drawn) [12f, (2R,3R)-2-(1-Benzylcarbamoylethylcarbamoyl)-3-(N^2-(N-benzyloxycarbonylalanylalanyl)-N^1-carbamoylmethylhydrazinocarbonyl)oxirane] was greater than 2 µM.
Regarding `CCCCC(N)C(=O)NN(CCc1ccccc1)C(=O)C1OC1C(=O)OCC.O=C(O)C(F)(F)F` (stereo not drawn) [Nle-AHph-trans-EP-COOEt.TFA, trans-3-(N^2-Norleucyl)-N^1-phenylethylhydrazinocarbonyl)oxirane-2-carboxylic Acid Ethyl Ester Trifluoroacetate Salt], the “kobs/[I] DPPI” value in experiment [3] came out at 8.2 M⁻¹ s⁻¹.
On to `CCCC(N)C(=O)NN(CCc1ccccc1)C(=O)C1OC1C(=O)OCC.O=C(O)C(F)(F)F` (stereo not drawn) [Nva-AHph-trans-EP-COOEt.TFA], for which, in experiment [3], the “kobs/[I] DPPI” value was 3.2 M⁻¹ s⁻¹.
For “trans-3-(N-(N-tert-Butoxycarbonylnorvalyl)-N^1-phenylethylhydrazinocarbonyl)oxirane-2-carboxylic Acid Ethyl Ester [Boc-Nva-AHph-trans-EP-COOEt]”, the “kobs/[I] papain” value in experiment [1] is 1.4 M⁻¹ s⁻¹. For the same compound, the “kobs/[I] cathepsin B” value in experiment [2] came out at 2.7 M⁻¹ s⁻¹. In experiment [3], the “kobs/[I] DPPI” value turned out to be 0.5 M⁻¹ s⁻¹.
Take “trans-3-(N^2-Norvalyl)-N^1-phenylethylhydrazinocarbonyl)-1-(2-phenylethyl)oxirane Trifluoroacetate Salt [Nva-AHph-trans-EP-CH2CH2Ph.TFA]”: the “kobs/[I] DPPI” value in experiment [3] was found to be 0.1 M⁻¹ s⁻¹.
